# Active and inactive are the calls of the source. No cut-off for these calls is given here.
# Tests used:
# [1] = test system: Candida albicans; assay: Antifungal activity against mixed infection of Candida albicans infected in mouse assessed as noninfected animals at 1% formulation in modified PEG 400 solution administered vaginally bid for 4 days measured on day 7 relative to placebo; format: functional
# [2] = test system: Candida albicans; assay: Antifungal activity against mixed infection of Candida albicans infected in mouse assessed as noninfected animals at 1% formulation administered vaginally bid for 4 days measured 6 hrs post last dose relative to placebo; format: functional
# [3] = test system: Candida albicans; assay: Antifungal activity against mixed infection of Candida albicans infected in mouse assessed as noninfected animals at 1% formulation administered vaginally bid for 4 days measured on day 7 relative to placebo; format: functional
# [4] = test system: Candida albicans; assay: Antifungal activity against mixed infection of Candida albicans infected in mouse assessed as noninfected animals at 0.5% formulation administered vaginally bid for 4 days measured 6 hrs post last dose relative to placebo; format: functional
# [5] = test system: Candida albicans; assay: Antifungal activity against mixed infection of Candida albicans infected in mouse assessed as noninfected animals at 0.5% formulation administered vaginally bid for 4 days measured on day 7 relative to placebo; format: functional
# [6] = test system: Candida albicans; assay: Antifungal activity against mixed infection of Candida albicans infected in mouse assessed as noninfected animals at 0.2% formulation administered vaginally bid for 4 days measured 6 hrs post last dose relative to placebo; format: functional
# [7] = test system: Candida albicans; assay: Antifungal activity against mixed infection of Candida albicans infected in mouse assessed as noninfected animals at 0.2% formulation administered vaginally bid for 4 days measured on day 7 relative to placebo; format: functional
# [8] = test system: Candida albicans; assay: Antifungal activity against mixed infection of Candida albicans infected in mouse assessed as noninfected animals at 0.1% formulation administered vaginally bid for 4 days measured 6 hrs post last dose relative to placebo; format: functional
# [9] = test system: Candida albicans; assay: Antifungal activity against mixed infection of Candida albicans infected in mouse assessed as noninfected animals at 0.1% formulation administered vaginally bid for 4 days measured on day 7 relative to placebo; format: functional
# [10] = test system: Trichophyton mentagrophytes; assay: Antifungal activity against Trichophyton mentagrophytes infected in guinea pig assessed as noninfected animals at 0.5% formulation in steryl alcohol, cetyl alcohol, Span 60, Tween 60, propylene glycol, mineral oil, and water administered qd for 5 days measured on day 4; format: functional
# [11] = test system: Trichophyton mentagrophytes; assay: Antifungal activity against Trichophyton mentagrophytes infected in guinea pig assessed as noninfected animals at 0.5% formulation in steryl alcohol, cetyl alcohol, Span 60, Tween 60, propylene glycol, mineral oil, and water administered qd for 5 days measured on day 7; format: functional
# [12] = test system: Trichophyton mentagrophytes; assay: Antifungal activity against Trichophyton mentagrophytes infected in guinea pig assessed as noninfected animals at 0.5% formulation in steryl alcohol, cetyl alcohol, Span 60, Tween 60, propylene glycol, mineral oil, and water administered qd for 5 days measured on day 14; format: functional
# [13] = Acute toxicity in po dosed mouse; format: organism-based; details: in vivo
# [14] = Acute toxicity in ip dosed mouse; format: organism-based; details: in vivo
# [15] = Acute toxicity in po dosed male rat; format: organism-based; details: in vivo
# [16] = Acute toxicity in po dosed female rat; format: organism-based; details: in vivo
# [17] = Acute toxicity in ip dosed rat; format: organism-based; details: in vivo
# [18] = test system: Salmonella typhimurium; assay: Mutagenic activity in Salmonella typhimurium TA-1535 at 0.1 to 100 ug/plate by Ames assay; format: toxicity, organism-based; details: salmonella enterica subsp. enterica serovar typhimurium
# [19] = test system: Salmonella typhimurium; assay: Mutagenic activity in Salmonella typhimurium TA-1537 at 0.1 to 100 ug/plate by Ames assay; format: toxicity, organism-based; details: salmonella enterica subsp. enterica serovar typhimurium
# [20] = test system: Salmonella typhimurium; assay: Mutagenic activity in Salmonella typhimurium TA-1538 at 0.1 to 100 ug/plate by Ames assay; format: toxicity, organism-based; details: salmonella enterica subsp. enterica serovar typhimurium
# [21] = test system: Salmonella typhimurium; assay: Mutagenic activity in Salmonella typhimurium TA-98 at 0.1 to 100 ug/plate by Ames assay; format: toxicity, organism-based; details: salmonella enterica subsp. enterica serovar typhimurium
# [22] = test system: Salmonella typhimurium; assay: Mutagenic activity in Salmonella typhimurium TA-100 at 0.1 to 100 ug/plate by Ames assay; format: toxicity, organism-based; details: salmonella enterica subsp. enterica serovar typhimurium
# [23] = test system: Saccharomyces cerevisiae; assay: Mutagenic activity in Saccharomyces cerevisiae D4 at 0.1 ug/plate by Ames assay; format: organism-based
# [24] = test system: Salmonella typhimurium; assay: Mutagenic activity in Salmonella typhimurium TA-1535 at 0.1 to 100 ug/plate by Ames assay in presence of rat liver microsomal enzyme preparation; format: toxicity, organism-based; details: salmonella enterica subsp. enterica serovar typhimurium, microsomes
# [25] = test system: Salmonella typhimurium; assay: Mutagenic activity in Salmonella typhimurium TA-1537 at 0.1 to 100 ug/plate by Ames assay in presence of rat liver microsomal enzyme preparation; format: toxicity, organism-based; details: salmonella enterica subsp. enterica serovar typhimurium, microsomes
# [26] = test system: Salmonella typhimurium; assay: Mutagenic activity in Salmonella typhimurium TA-1538 at 0.1 to 100 ug/plate by Ames assay in presence of rat liver microsomal enzyme preparation; format: toxicity, organism-based; details: salmonella enterica subsp. enterica serovar typhimurium, microsomes
# [27] = test system: Salmonella typhimurium; assay: Mutagenic activity in Salmonella typhimurium TA-98 at 0.1 to 100 ug/plate by Ames assay in presence of rat liver microsomal enzyme preparation; format: toxicity, organism-based; details: salmonella enterica subsp. enterica serovar typhimurium, microsomes
# [28] = test system: Salmonella typhimurium; assay: Mutagenic activity in Salmonella typhimurium TA-100 at 0.1 to 100 ug/plate by Ames assay in presence of rat liver microsomal enzyme preparation; format: toxicity, organism-based; details: salmonella enterica subsp. enterica serovar typhimurium, microsomes
# [29] = test system: Saccharomyces cerevisiae; assay: Mutagenic activity in Saccharomyces cerevisiae D4 at 0.1 ug/plate by Ames assay in presence of rat liver microsomal enzyme preparation; format: toxicity, organism-based; details: microsomes
# [30] = test system: Saccharomyces cerevisiae; assay: Toxicity in Saccharomyces cerevisiae D4 at 500 ug/plate; format: organism-based; details: in vivo
# [31] = test system: Salmonella typhimurium; assay: Toxicity in Salmonella typhimurium TA-100 at 500 ug/plate; format: organism-based; details: salmonella enterica subsp. enterica serovar typhimurium
# [32] = test system: Salmonella typhimurium; assay: Toxicity in Salmonella typhimurium TA-1538 at 500 ug/plate; format: organism-based; details: salmonella enterica subsp. enterica serovar typhimurium
# [33] = test system: Salmonella typhimurium; assay: Toxicity in Salmonella typhimurium TA-1535 at 500 ug/plate; format: organism-based; details: salmonella enterica subsp. enterica serovar typhimurium
# [34] = test system: Salmonella typhimurium; assay: Toxicity in Salmonella typhimurium TA-1537 at 500 ug/plate; format: organism-based; details: salmonella enterica subsp. enterica serovar typhimurium
# [35] = test system: Candida albicans; assay: Antifungal activity against Candida albicans infected in mouse assessed as noninfected animals at 0.25 to 4% formulation in neat PEG 400 solution administered vaginally bid for 4 days measured on day 21; format: functional, organism-based
# [36] = test system: Salmonella typhimurium; assay: Toxicity in Salmonella typhimurium TA-98 at 500 ug/plate; format: organism-based; details: salmonella enterica subsp. enterica serovar typhimurium
# [37] = test system: Trichophyton mentagrophytes; assay: Antifungal activity against Trichophyton mentagrophytes assessed as growth inhibition by agar dilution method; format: functional
# [38] = test system: Trichophyton rubrum; assay: Antifungal activity against Trichophyton rubrum assessed as growth inhibition by agar dilution method; format: functional
# [39] = test system: Trichophyton tonsurans; assay: Antifungal activity against Trichophyton tonsurans assessed as growth inhibition by agar dilution method; format: functional
# [40] = Antifungal activity against Trichophyton concentricum assessed as growth inhibition by agar dilution method; format: functional
# [41] = test system: Nannizzia gypsea; assay: Antifungal activity against Microsporum gypseum assessed as growth inhibition by agar dilution method; format: functional
# [42] = test system: Microsporum canis; assay: Antifungal activity against Microsporum canis assessed as growth inhibition by agar dilution method; format: functional
# [43] = test system: Epidermophyton floccosum; assay: Antifungal activity against Epidermophyton floccosum assessed as growth inhibition by agar dilution method; format: functional
# [44] = test system: Candida albicans; assay: Antifungal activity against Candida albicans ATCC 10231 assessed as growth inhibition by broth dilution method; format: functional
# [45] = test system: Candida albicans; assay: Antifungal activity against Candida albicans ATCC 14053 assessed as growth inhibition by broth dilution method; format: functional
# [46] = test system: Cryptococcus neoformans; assay: Antifungal activity against Cryptococcus neoformans assessed as growth inhibition by broth dilution method; format: functional
# [47] = test system: Staphylococcus aureus; assay: Antibacterial activity against Staphylococcus aureus No. 6538 P assessed as growth inhibition by broth microdilution method; format: functional
# [48] = test system: Staphylococcus aureus; assay: Antibacterial activity against Staphylococcus aureus No. 14154 assessed as growth inhibition by broth microdilution method; format: functional
# [49] = test system: Enterococcus faecalis; assay: Antibacterial activity against Streptococcus faecalis No. 8043-2 assessed as growth inhibition by broth microdilution method; format: functional
# [50] = test system: Streptococcus pyogenes; assay: Antibacterial activity against Streptococcus pyogenes No. 8668 assessed as growth inhibition by broth microdilution method; format: functional
# [51] = test system: Candida albicans; assay: Antifungal activity against Candida albicans infected in mouse assessed as noninfected animals at 2% formulation in neat PEG 400 solution administered vaginally bid for 4 days measured 6 hrs post last dose relative to placebo; format: functional
# [52] = test system: Candida albicans; assay: Antifungal activity against Candida albicans infected in mouse assessed as noninfected animals at 2% formulation in neat PEG 400 solution administered vaginally bid for 4 days measured on day 7 relative to placebo; format: functional
# [53] = test system: Candida albicans; assay: Antifungal activity against Candida albicans infected in mouse assessed as noninfected animals at 1% formulation in neat PEG 400 solution administered vaginally bid for 4 days measured 6 hrs post last dose relative to placebo; format: functional
# [54] = test system: Candida albicans; assay: Antifungal activity against Candida albicans infected in mouse assessed as noninfected animals at 1% formulation in neat PEG 400 solution administered vaginally bid for 4 days measured on day 7 relative to placebo; format: functional
# [55] = test system: Candida albicans; assay: Antifungal activity against Candida albicans infected in mouse assessed as noninfected animals at 0.5% formulation in neat PEG 400 solution administered vaginally bid for 4 days measured 6 hrs post last dose relative to placebo; format: functional
# [56] = test system: Candida albicans; assay: Antifungal activity against Candida albicans infected in mouse assessed as noninfected animals at 0.5% formulation in neat PEG 400 solution administered vaginally bid for 4 days measured on day 7 relative to placebo; format: functional
# [57] = test system: Candida albicans; assay: Antifungal activity against Candida albicans infected in mouse assessed as noninfected animals at 0.25% formulation in neat PEG 400 solution administered vaginally bid for 4 days measured 6 hrs post last dose relative to placebo; format: functional
# [58] = test system: Candida albicans; assay: Antifungal activity against Candida albicans infected in mouse assessed as noninfected animals at 0.25% formulation in neat PEG 400 solution administered vaginally bid for 4 days measured on day 7 relative to placebo; format: functional
structure (smiles),measurement,setting,value
Clc1ccc(CCC(Cn2ccnc2)Sc2c(Cl)cccc2Cl)cc1.O=[N+]([O-])O (stereo not given) [BUTOCONAZOLE NITRATE],Activity,[1],55%
same,Activity,[2],84%
same,Activity,[3],83%
same,Activity,[4],65%
same,Activity,[5],60%
same,Activity,[6],60%
same,Activity,[7],63%
same,Activity,[8],35%
same,Activity,[9],40%
same,Activity,[10],60%
same,Activity,[11],90%
same,Activity,[12],40%
same,LD50,[13],> 3200 mg/kg
same,LD50,[14],> 1600 mg/kg
same,LD50,[15],> 3200 mg/kg
same,LD50,[16],1720 mg/kg
same,LD50,[17],940 mg/kg
same,Activity,[18],Non-toxic
same,Activity,[19],Non-toxic
same,Activity,[20],Non-toxic
same,Activity,[21],Non-toxic
same,Activity,[22],Non-toxic
same,Activity,[23],Non-toxic
same,Activity,[24],Non-toxic
same,Activity,[25],Non-toxic
same,Activity,[26],Non-toxic
same,Activity,[27],Non-toxic
same,Activity,[28],Non-toxic
same,Activity,[29],Non-toxic
same,Activity,[30],Toxic
same,Activity,[31],Toxic
same,Activity,[32],Toxic
same,Activity,[33],Toxic
same,Activity,[34],Toxic
same,Activity,[35],Active
same,Activity,[36],Toxic
same,GI,[37],1 µg/mL
same,GI,[38],0.05 µg/mL
same,GI,[39],5 µg/mL
same,GI,[40],0.05 µg/mL
same,GI,[41],0.05 µg/mL
same,GI,[42],0.1 µg/mL
same,GI,[43],5 µg/mL
same,GI,[44],30 µg/mL
same,GI,[45],10 µg/mL
same,GI,[46],<=1 ug ml-1
same,GI,[47],6.25 µg/mL
same,GI,[48],12.5 µg/mL
same,GI,[49],3.12 µg/mL
same,GI,[50],0.0016 µg/mL
same,Activity,[51],85%
same,Activity,[52],85%
same,Activity,[53],90%
same,Activity,[54],95%
same,Activity,[55],80%
same,Activity,[56],75%
same,Activity,[57],75%
same,Activity,[58],75%
Clc1ccccc1C(c1ccccc1)(c1ccccc1)n1ccnc1 [CLOTRIMAZOLE],Activity,[53],85%
same,Activity,[54],55%

# Reference: ChEMBL document CHEMBL3272133, “1-[4-(4-Chlorophenyl)-2-(2,6-dichlorophenylthio)-n-butyl]-1H-imidazole nitrate, a new potent antifungal agent” (J Med Chem, 1978)
